Values after ≈ are worked out from the molar mass of the structure shown. Starred links: 1 amine or outer side, 2 acyl side, 3 side chain; linkers in the order of their positions; H or OH if unused. Non-standard residues stand in square brackets, D forms with d. Residues, ends and D or L forms follow the SMILES beside them. *: point of attachment. X1 = O=C([C@@H]1CSC([C@H](Cc2ccccc2)N[*:1])=N1)[*:2]; Allyl(1,1-Me2) = C=CC(C)(C)*
Experiments:
[1] = test system: A-549 (monolayer culture of a human lung carcinoma)
Experimental: (§1) Cells were maintained in logarithmic phase of growth in Eagle's Minimum Essential Medium, with Earle's Balanced Salts, with 2.0 mM L-glutamine, with non-essential amino acids, without sodium bicarbonate (EMEM/neaa); supplemented with 10% Fetal Calf Serum (FCS), 10^−2 M sodium bicarbonate and 0.1 g/l penicillin-G+streptomycin sulfate.
(§2) The antitumor cells employed were P-388 (suspension culture of a lymphoid neoplasm from DBA-2 mouse), A-549 (monolayer culture of a human lung carcinoma), HT-29 (monolayer culture of a human colon carcinoma) and MEL-28 (monolayer culture of a human melanoma).
(§3) A-549, HT-29 and MEL-28 cells were seeded into 16 mm wells at 2×10^4 cells per well in 1 ml aliquots of MEM 10FCS containing the indicated concentration of drug. A separate set of cultures without drug was seeded as control growth to ensure that cells remained in exponential phase of growth. All determinations were carried in duplicate. After three days of incubation at 37° C., 10% CO2 in a 98% humid atmosphere, the wells were stained with 0.1% Crystal Violet. An approximate IC50 was determined by comparing the growth in wells with drug to the growth in wells control.

[2] = test system: HT-29 (monolayer culture of a human colon carcinoma)
Experimental: as §1, §2, §3

[3] = test system: MEL-28 (monolayer culture of a human melanoma)
Experimental: as §1, §2, §3

[4] = test system: P-388 (suspension culture of a lymphoid neoplasm from DBA-2 mouse)
Experimental: as §1
A simple screening procedure was carried out to determine and compare the antitumor activity of this compound, using an adapted form of the method described by Bergeron et al. [Biochem. Bioph. […] The antitumor cells employed were P-388 (suspension culture of a lymphoid neoplasm from DBA-2 mouse), A-549 (monolayer culture of a human lung carcinoma), HT-29 (monolayer culture of a human colon carcinoma) and MEL-28 (monolayer culture of a human melanoma).
P-388 cells were seeded into 16 mm wells at 1×10^4 cells per well in 1 ml aliquots of MEM 5FCS containing the indicated concentration of drug. A separate set of cultures without drug was seeded as control growth to ensure that cells remained in exponential phase of growth. All determinations were carried out in duplicate. After three days of incubation at 37° C., 10% CO2 in a 98% humid atmosphere, an approximate IC50 was determined by comparing the growth in wells with drug to the growth in wells control.

- IC50 A-549 [1]: 0.5 µg/mL (≈ 0.597 µM)
- IC50 HT-29 [2]: 0.5 µg/mL (≈ 0.597 µM)
- IC50 MEL-28 [3]: 1.0 µg/mL (≈ 1.19 µM)
- IC50 P-388 [4]: 0.5 µg/mL (≈ 0.597 µM)
Compound: C=CC(C)(C)OC[C@@H]1NC(=O)[C@H]([C@@H](C)OC(C)(C)C=C)NC(=O)[C@@H]2CSC(=N2)[C@H](Cc2ccccc2)NC(=O)[C@@H]2CCCN2C(=O)[C@H](C)NC(=O)[C@H]([C@@H](C)CC)NC1=O [trunkamide A] (cyclo(AP[X1]T(Allyl(1,1-Me2))S(Allyl(1,1-Me2))I))

Reference: patent US20040033940A1, “Cyclic hepta-peptide derivative from colonial ascidians, lissoclinum SP” (Pharma Mar, S.A., priority 2002, published 2004)
